In publication doi:10.1101/2024.03.04.583282v1 (biorxiv, 2024):

Columns and labels:
NATA2Δ = NATA2Δ (Arabidopsis thaliana, UniProt Q9ZV06); experiment: isothermal titration calorimetry; type: binding
NATA1Δ = NATA1Δ (Arabidopsis thaliana, UniProt Q9ZV05); experiment: isothermal titration calorimetry; type: binding
Sequence of NATA1Δ (Q9ZV05 19-228, stated change not applied): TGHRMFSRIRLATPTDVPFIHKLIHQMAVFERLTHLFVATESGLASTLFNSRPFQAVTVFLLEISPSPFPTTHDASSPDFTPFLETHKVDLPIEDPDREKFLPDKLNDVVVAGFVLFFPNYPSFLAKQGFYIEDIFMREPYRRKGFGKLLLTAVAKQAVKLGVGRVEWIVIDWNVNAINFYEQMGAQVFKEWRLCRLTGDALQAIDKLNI

Sequence of NATA2Δ (Q9ZV06 30-236, stated change not applied): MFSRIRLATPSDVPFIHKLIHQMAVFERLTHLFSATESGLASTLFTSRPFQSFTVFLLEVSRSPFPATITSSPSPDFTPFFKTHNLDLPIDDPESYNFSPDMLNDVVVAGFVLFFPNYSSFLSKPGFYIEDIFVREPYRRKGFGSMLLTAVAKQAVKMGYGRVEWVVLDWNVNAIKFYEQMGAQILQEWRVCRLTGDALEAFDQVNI

Kd (NATA2Δ): ~10 µM | Kd (NATA1Δ): ~10 µM
Compound: CC(=O)SCCNC(=O)CCNC(=O)[C@H](O)C(C)(C)COP(=O)(O)OP(=O)(O)OC[C@H]1O[C@@H](n2cnc3c(N)ncnc32)[C@H](O)[C@@H]1OP(=O)(O)O [acCoA]
